From patent US4954518A, “4H-1-benzopyran-4-one derivative or its salt, process for producing the same and pharmaceutical composition comprising the same as active ingredient” (Toyama Chemical Company, Ltd., priority 1987, dated 1990)
Where two headings read alike, the source gives them in different places.

Assays:
[1] = test system: Carrageenin-Induced Paw Edema; experiment: Carrageenin-induced paw edema in rats (inhibitory activity); assay type: in vivo, male rats of Donryu strain; conditions: Rattus norvegicus, read-out: Inhibitory effect (carrageenin-induced paw edema)
Description: (1) Carrageenin-induced paw edema
This inhibitory activity was tested according to the method of C. A. Winter et al. [Proceedings of the Society for Experimental Biology and Medicine, vol.
After one hour, 0.1 ml of a 1% carrageenin was injected into the subplantar region of the left hind paw. Three hours after carrageenin injection, the paw volume was measured plethysmographically and the percent swelling was determined from the volume before injection and the inhibitory percentage was calculated according to the following equation: [formula]

Adjuvant Arthritis = experiment: Adjuvant-induced arthritis in rats (inhibitory activity); assay type: in vivo, male rats of Westar-Lewis strain; conditions: for inhibition in vivo at 3 mg/kg / inhibition in vivo at 10 mg/kg: Rattus norvegicus, read-out: Inhibitory effect (adjuvant arthritis, Table 4); for Inhibitory effect (adjuvant arthritis, Table 3): seven continuous days
Description: (2) Adjuvant-induced arthritis
This inhibitory activity was tested according to the method of E. M. Glenn [American Journal of Veterinary Research, vol. 27, p. 339 (1966)].
To male rats of Westar-Lewis strain (body weight: 190-230 g, 5 rats per group) was intradermally injected 0.1 ml of a suspension of heat-killed Mycobacterium tuberculosis in liquid paraffin at a concentration of 6 mg/ml as the adjuvant into the root of tail. Eighteen days after the adjuvant injection, the rats were classified based on the volume of both hind paws, and then a suspension of the test compound in 0.5% (w/v) aqueous carboxymethylcellulose solution was orally administered to the classified rats in a proportion of 1 ml/100 g of body weight once a day for seven continuous days (see Table 3) or four continuous days (see Table 4). On the day following the last administration, the volume of both hind paws was measured, and in the same manner as in (1) above, the inhibitory effect was determined. Incidentally, the result is shown in Tables 3 and 4 in terms of the inhibitory effect indicated below based on inhibition (x%).

[2] = Ulcerogenic effect in rats; set-up: species or system male rats of Wister strain; conditions: rat, in vivo
Description: To male rats of Wister strain (body weight: 180-230 g, 7 to 8 rats per group) which had been fasted for 24 hours with free access to water was orally administered a test compound suspended in 0.5% (w/v) aqueous carboxymethylcellulose solution in a proportion of 1 ml/100 g of body weight. The rats were allowed to stand under abstinence from food and water for 24 hours, and thereafter, sacrificed by dislocation of cervical vertebrae, after which the stomach was removed and fixed in 1% (v/v) formaline solution for 30 minutes. This stomach was split along the greater curvature and the length (mm) of the erosion and ulcer formed on the gastric mucosa was measured by a stereomicroscope, and the total sum of the lengths (lmm) was determined, from which ulcerogenic index was assessed based on the following arbitrary scale:
Subsequently, UD50 (mg/kg) which is the dose of the test compound which induces ulcerogenic index 5 was determined on each test compound.
*Rats were allowed to stand for 5 hours under abstinence from food and […]

mice = experiment: Oral acute toxicity in mice; assay type: in vivo, ICR strain male mice; conditions: for behavioural changes: mouse, in vivo, po, 500 mg/kg; for death cases: oral, dose of 500 mg/kg, observed over one week
Description: (§1) ICR strain male mice (body weight: 20-25 g, […], 3 mice per group) were tested for oral acute toxicity. A test compound suspended in 0.5% (w/v) aqueous carboxymethylcellulose solution was orally administered to the mice in a proportion of 0.2 ml/10 g of body weight. After the administration, general symptom was observed over one week.

[3] = Oral acute toxicity in mice; assay type: in vivo, ICR strain male mice; conditions: mouse, in vivo; oral, mice
Description: as §1

[4] = 10 mg/kg oral, 1 h before carrageenin, paw volume 3 h after
[5] = 3 mg/kg oral once a day, four continuous days
[6] = 10 mg/kg oral once a day, four continuous days

Row | SMILES | inhibition in vivo at 10 mg/kg [1, 4] [%] | inhibition in vivo at 3 mg/kg (Adjuvant Arthritis; [5]) [%] | behavioural changes (mice) | death cases (mice) | other results
1 | CS(=O)(=O)Nc1cc2occ(NC=O)c(=O)c2cc1Oc1ccccc1 [Compound 99] | > 40 | 20 to 30 | no behavioural changes were observed | no death case was found | TD50 at 24 h ([2]; po): > 500 mg/kg
2 | CS(=O)(=O)Nc1cc2occc(=O)c2cc1Nc1ccccc1 [Compound 12] | 30 to 40 | 30 to 40 | – | – | –
3 | CS(=O)(=O)Nc1cc2occc(=O)c2cc1Oc1ccccc1 [Compound 1, 7-methylsulfonylamino-6-phenoxy4H-1-benzopyran-4-one] | 30 to 40 | – | no behavioural changes were observed | no death case was found | Inhibitory effect (adjuvant arthritis, Table 3) (Adjuvant Arthritis; 10 mg/kg oral once a day): +++ (30 ≤ × < 40); TD50 at 5 h ([2]; po): > 300 mg/kg
4 | COc1ccc2c(c1)c(CC(=O)O)c(C)n2C(=O)c1ccc(Cl)cc1 [IM, indomethacin, reference compound] | – | – | – | – | inhibition in vivo at 10 mg/kg ([1]; po, 3 h): > 40%; Inhibitory effect (adjuvant arthritis, Table 3) (Adjuvant Arthritis; 1 mg/kg oral once a day): +++ (30 ≤ × < 40); inhibition in vivo at 3 mg/kg (Adjuvant Arthritis; po): 30 to 40%; TD50 at 24 h ([2]; oral, 24 hours under abstinence from food and water, read-out: UD50 (dose which induces ulcerogenic index 5)): 4.3 mg/kg; LD50 at 168 h [3]: 25 mg/kg
5 | Cc1oc2cc(NS(C)(=O)=O)c(Oc3ccccc3)cc2c(=O)c1C(N)=O [Compound 61] | 15 to 20 | – | – | – | inhibition in vivo at 10 mg/kg (Adjuvant Arthritis; [6]): 30 to 40%
6 | CNc1coc2cc(NS(C)(=O)=O)c(Oc3ccccc3)cc2c1=O [Compound 101] | 30 to 40 | – | – | – | inhibition in vivo at 10 mg/kg (Adjuvant Arthritis; [6]): 20 to 30%
7 | CS(=O)(=O)Nc1cc2occ(C(N)=O)c(=O)c2cc1Oc1ccccc1 [Compound 122] | 20 to 30 | 20 to 30 | – | – | –
8 | CN(C=O)c1coc2cc(NS(C)(=O)=O)c(Oc3ccccc3)cc2c1=O [Compound 100] | > 40 | – | – | – | inhibition in vivo at 10 mg/kg (Adjuvant Arthritis; [6]): 20 to 30%
9 | CS(=O)(=O)Nc1cc2occ(NC=O)c(=O)c2cc1Oc1ccccc1F [Compound 34] | > 40 | 30 to 40 | no behavioural changes were observed | no death case was found | TD50 at 24 h ([2]; po): > 500 mg/kg
10 | O=CNc1coc2cc(NS(=O)(=O)CCl)c(Oc3ccccc3)cc2c1=O [Compound 40] | > 40 | 20 to 30 | – | – | –
11 | CSc1coc2cc(NS(C)(=O)=O)c(Oc3ccccc3)cc2c1=O [Compound 4, 7-methylsulfonylamino-3-methylthio-6-phenoxy-4H-1-benzopyran-4-one] | 20 to 30 | 20 to 30 | – | – | –
12 | Cc1ccccc1Oc1cc2c(=O)c(NC=O)coc2cc1NS(C)(=O)=O [Compound 46] | > 40 | 20 to 30 | no behavioural changes were observed | no death case was found | TD50 at 24 h ([2]; po): > 500 mg/kg
13 | CS(=O)(=O)Nc1cc2occ(NC=O)c(=O)c2cc1Oc1ccc(F)cc1F [Compound 39] | > 40 | 20 to 30 | no behavioural changes were observed | no death case was found | TD50 at 24 h ([2]; po): > 500 mg/kg
14 | CS(=O)(=O)Nc1cc2occc(=O)c2cc1Oc1ccc(F)cc1F [Compound 94, 6-(2,4-difluorophenoxy)-7-methylsulfonylamino-4H-1-benzopyran-4-one] | 30 to 40 | – | no behavioural changes were observed | no death case was found | Inhibitory effect (adjuvant arthritis, Table 3) (Adjuvant Arthritis; 10 mg/kg oral once a day): ++++ (× ≥ 40); TD50 at 5 h ([2]; po): > 300 mg/kg
15 | CS(=O)(=O)Nc1cc2occ(NC=O)c(=O)c2cc1Sc1ccccc1 [Compound 88] | 30 to 40 | – | – | – | inhibition in vivo at 10 mg/kg (Adjuvant Arthritis; [6]): 20 to 30%
16 | CC(=O)N(c1cc2occc(=O)c2cc1Oc1ccccc1)S(C)(=O)=O [Compound 96] | 30 to 40 | – | – | – | Inhibitory effect (adjuvant arthritis, Table 3) (Adjuvant Arthritis; 10 mg/kg oral once a day): ++++ (× ≥ 40)
17 | Cc1cc(=O)c2cc(Oc3ccccc3)c(NS(C)(=O)=O)cc2o1 [Compound 9] | 20 to 30 | – | – | – | Inhibitory effect (adjuvant arthritis, Table 3) (Adjuvant Arthritis; 10 mg/kg oral once a day): ++++ (× ≥ 40)
